Results published in patent US8772478B2, “Benzenesulfonamide compounds, method for synthesizing same, and use thereof in medicine as well as in cosmetics” (Galderma Research & Development, priority 2009, dated 2014).

Assays:
TACE enzyme [1] = conditions: from WO 00/44709, table 10, example 61; cited from earlier work
TACE enzyme [2] = molecular target: TACE enzyme (Homo sapiens, UniProt P78536); assay: Enzymatic assay for TACE inhibition; type: biochemical; conditions: for % TACE inhibition at 10 μM: 10 μM compound
TACE enzyme (Homo sapiens, UniProt P78536), sequence (P78536 215-824 limits assumed): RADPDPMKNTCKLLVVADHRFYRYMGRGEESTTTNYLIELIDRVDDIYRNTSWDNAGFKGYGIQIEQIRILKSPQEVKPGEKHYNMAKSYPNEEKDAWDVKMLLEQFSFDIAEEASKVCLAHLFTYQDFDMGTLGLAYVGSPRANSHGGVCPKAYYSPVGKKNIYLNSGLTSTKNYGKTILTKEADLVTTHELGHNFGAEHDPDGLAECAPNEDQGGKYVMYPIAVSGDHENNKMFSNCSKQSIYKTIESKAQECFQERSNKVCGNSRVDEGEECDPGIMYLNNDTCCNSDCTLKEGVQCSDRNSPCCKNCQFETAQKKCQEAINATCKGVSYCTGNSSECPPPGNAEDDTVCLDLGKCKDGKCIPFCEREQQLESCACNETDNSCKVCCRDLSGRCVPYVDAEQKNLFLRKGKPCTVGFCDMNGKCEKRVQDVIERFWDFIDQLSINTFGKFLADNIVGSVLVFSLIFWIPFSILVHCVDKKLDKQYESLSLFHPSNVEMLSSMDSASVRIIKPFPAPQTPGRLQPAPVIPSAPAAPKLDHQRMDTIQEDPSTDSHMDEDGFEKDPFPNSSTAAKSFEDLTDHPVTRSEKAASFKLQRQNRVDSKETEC
Method: (§1) A serial 3-fold dilution over 10 points is carried out so as to have a concentration range of from 10 μM to 0.5 nM final concentration. […] The substrate is used at 40 μM. […] The IC50 is determined using mathematical processing software (XLfit).

ADAM9 = ADAM9 (Homo sapiens (Human), UniProt Q13443); assay: Selectivity assay ADAM9; type: biochemical
ADAM9, sequence (Q13443 29-819, species assumed): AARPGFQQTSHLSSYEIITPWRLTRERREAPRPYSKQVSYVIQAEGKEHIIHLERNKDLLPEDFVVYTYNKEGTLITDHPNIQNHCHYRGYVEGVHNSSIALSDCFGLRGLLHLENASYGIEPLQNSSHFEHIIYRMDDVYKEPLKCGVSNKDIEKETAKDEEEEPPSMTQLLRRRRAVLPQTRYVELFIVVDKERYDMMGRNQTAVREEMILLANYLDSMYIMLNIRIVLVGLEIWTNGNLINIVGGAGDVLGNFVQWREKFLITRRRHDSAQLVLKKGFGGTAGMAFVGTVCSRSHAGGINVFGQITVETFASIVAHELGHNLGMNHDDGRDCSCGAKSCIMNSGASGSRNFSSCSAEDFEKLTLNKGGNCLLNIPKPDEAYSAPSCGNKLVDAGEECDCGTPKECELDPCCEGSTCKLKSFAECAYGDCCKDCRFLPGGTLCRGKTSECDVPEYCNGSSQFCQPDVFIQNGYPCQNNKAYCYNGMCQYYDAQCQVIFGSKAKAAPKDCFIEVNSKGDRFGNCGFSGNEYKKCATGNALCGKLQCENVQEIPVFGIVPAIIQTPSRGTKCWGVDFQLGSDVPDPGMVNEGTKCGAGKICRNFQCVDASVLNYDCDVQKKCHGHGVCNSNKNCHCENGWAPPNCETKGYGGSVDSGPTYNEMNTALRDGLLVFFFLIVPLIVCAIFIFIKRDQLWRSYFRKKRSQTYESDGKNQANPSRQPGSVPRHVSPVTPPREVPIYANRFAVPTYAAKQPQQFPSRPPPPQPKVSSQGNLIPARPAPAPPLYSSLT
Method: as §1
(§2) The enzymes are purchased from Calbiochem.

MMP9 = MMP9 (Homo sapiens (Human), UniProt P14780); assay: Selectivity assay MMP9; type: biochemical
MMP9, sequence (P14780 94-707, species assumed): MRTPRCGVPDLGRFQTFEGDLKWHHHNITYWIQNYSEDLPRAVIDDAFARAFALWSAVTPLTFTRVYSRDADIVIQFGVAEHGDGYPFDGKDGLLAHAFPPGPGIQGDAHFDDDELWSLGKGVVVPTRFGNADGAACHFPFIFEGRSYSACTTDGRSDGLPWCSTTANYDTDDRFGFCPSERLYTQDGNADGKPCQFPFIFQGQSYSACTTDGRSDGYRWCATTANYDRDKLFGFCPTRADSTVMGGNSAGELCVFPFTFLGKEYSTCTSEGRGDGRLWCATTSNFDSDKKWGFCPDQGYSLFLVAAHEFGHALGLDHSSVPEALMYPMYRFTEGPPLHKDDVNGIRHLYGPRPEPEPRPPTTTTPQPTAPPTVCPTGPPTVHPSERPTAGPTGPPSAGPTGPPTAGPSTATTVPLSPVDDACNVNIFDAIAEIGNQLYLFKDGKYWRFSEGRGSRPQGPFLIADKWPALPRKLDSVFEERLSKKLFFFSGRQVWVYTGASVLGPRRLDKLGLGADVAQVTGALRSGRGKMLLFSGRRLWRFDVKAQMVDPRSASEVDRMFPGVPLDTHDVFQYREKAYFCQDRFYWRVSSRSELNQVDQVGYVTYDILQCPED
Method: as §1, §2

MMP1 = MMP1 (Homo sapiens (Human), UniProt P03956); assay: Selectivity assay MMP1; type: biochemical
MMP1, sequence (P03956 100-469, species assumed): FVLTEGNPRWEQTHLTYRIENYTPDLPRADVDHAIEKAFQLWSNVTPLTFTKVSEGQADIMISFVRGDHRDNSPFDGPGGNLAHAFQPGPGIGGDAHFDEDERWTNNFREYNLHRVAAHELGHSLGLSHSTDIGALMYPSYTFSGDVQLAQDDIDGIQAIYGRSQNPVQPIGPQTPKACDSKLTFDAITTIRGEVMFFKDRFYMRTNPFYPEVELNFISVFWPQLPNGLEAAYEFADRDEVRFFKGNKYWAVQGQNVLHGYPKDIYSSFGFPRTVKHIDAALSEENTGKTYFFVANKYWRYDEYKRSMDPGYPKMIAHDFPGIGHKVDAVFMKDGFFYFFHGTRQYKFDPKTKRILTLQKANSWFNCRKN
Method: as §1, §2

MMP3 = MMP3 (Homo sapiens (Human), UniProt P08254); assay: Selectivity assay MMP3; type: biochemical
MMP3, sequence (P08254 100-477, species assumed): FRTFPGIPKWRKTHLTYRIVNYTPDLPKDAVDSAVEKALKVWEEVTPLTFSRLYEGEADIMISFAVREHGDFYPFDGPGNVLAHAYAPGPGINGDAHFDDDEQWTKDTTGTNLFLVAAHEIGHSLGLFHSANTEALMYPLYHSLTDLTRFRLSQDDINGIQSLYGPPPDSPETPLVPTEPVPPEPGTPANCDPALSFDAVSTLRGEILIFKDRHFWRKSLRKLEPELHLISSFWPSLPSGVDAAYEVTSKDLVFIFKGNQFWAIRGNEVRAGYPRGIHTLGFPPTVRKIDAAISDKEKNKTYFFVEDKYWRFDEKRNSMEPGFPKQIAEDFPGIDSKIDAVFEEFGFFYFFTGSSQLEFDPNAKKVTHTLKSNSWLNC

ADAM10 = ADAM10 (Homo sapiens (Human), UniProt O14672); assay: Selectivity assay ADAM10; type: biochemical
ADAM10, sequence (O14672 214-748, species assumed): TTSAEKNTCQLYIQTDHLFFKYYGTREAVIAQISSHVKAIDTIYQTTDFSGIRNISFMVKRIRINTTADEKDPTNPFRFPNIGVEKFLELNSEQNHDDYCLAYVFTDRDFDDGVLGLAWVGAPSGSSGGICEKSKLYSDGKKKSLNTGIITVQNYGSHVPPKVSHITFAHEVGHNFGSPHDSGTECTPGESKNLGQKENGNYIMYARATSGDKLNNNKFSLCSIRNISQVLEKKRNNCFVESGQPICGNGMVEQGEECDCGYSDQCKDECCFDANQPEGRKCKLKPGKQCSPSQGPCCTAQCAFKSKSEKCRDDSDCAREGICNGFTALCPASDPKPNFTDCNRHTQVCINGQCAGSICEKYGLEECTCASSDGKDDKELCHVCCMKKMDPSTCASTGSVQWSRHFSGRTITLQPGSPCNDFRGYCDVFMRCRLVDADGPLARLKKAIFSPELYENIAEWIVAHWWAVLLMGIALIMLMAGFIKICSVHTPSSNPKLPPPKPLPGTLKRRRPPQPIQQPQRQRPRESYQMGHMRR
Method: as §1, §2

[3] = fluorescent substrate 40 μM, pH 7.4

Compound	% TACE inhibition at 10 μM (TACE enzyme [2])	IC50 (TACE enzyme [2]; [3])	also measured
CC1(C)SCCN(S(=O)(=O)c2ccc(OCC#CCO)cc2)[C@H]1C(=O)NO [Apratastat]	–	–	selectivity for the TACE enzyme compared with certain MMPs (TACE enzyme [1]): not selective
O=C(NO)[C@H](CNS(=O)(=O)c1ccc(OCc2ccccc2)cc1)N1CCCCC1 [Example 1, (S)-3-(4-benzyloxybenzenesulfonylamino)-N-hydroxy-2-piperidin-1-ylpropionamide]	98%	181 nM	–
O=C(NO)[C@H](CNS(=O)(=O)c1ccc(OCc2ccccc2)cc1)N1CCCC1 [Example 2, (S)-3-(4-benzyloxybenzenesulfonylamino)-N-hydroxy-2-pyrrolidin-1-ylpropionamide]	95%	298 nM	–
O=C(NO)[C@H](CNS(=O)(=O)c1ccc(OCc2ccc(F)cc2)cc1)N1CCCCC1 [Example 3, (S)-3-[4-(4-fluorobenzyloxy)benzenesulfonylamino]-N-hydroxy-2-piperidin-1-ylpropionamide]	97%	181 nM	–
O=C(NO)[C@H](CNS(=O)(=O)c1ccc(OCc2ccc3ccccc3c2)cc1)N1CCCCC1 [Example 5, (S)—N-Hydroxy-3-[4-(naphthalen-2-ylmethoxy)benzenesulfonylamino]-2-piperidin-1-ylpropionamide]	97%	249 nM	–
O=C(NO)[C@H](CNS(=O)(=O)c1ccc(OCc2ccc(Cl)c(Cl)c2)cc1)N1CCCCC1 [Example 6, (S)-3-[4-(3,4-dichlorobenzyloxy)benzenesulfonylamino]-N-hydroxy-2-piperidin-1-ylpropionamide]	97%	328 nM	–
O=C(NO)[C@H](CNS(=O)(=O)c1ccc(OCc2ccccc2)cc1)N1CCOCC1 [Example 7, (S)-3-(4-benzyloxybenzenesulfonylamino)-N-hydroxy-2-morpholin-4-ylpropionamide]	98%	147 nM	–
Cc1cc(COc2ccc(S(=O)(=O)NC[C@@H](C(=O)NO)N3CCCCC3)cc2)c2ccccc2n1 [Example 8, (S)—N-hydroxy-3-[4-(2-methylquinolin-4-ylmethoxy)benzenesulfonylamino]-2-piperidin-1-ylpropionamide]	99%	–	IC50 (ADAM9): > 10000 nM; IC50 (MMP9): > 10000 nM; IC50 (MMP1): 3000 nM; IC50 (MMP3): 4500 nM; IC50 (ADAM10): > 10000 nM
O=C(NO)[C@H](CNS(=O)(=O)c1ccc(OCc2cc(Cl)cc(Cl)c2)cc1)N1CCCCC1 [Example 9, (S)-3-[4-(3,5-dichlorobenzyloxy)benzenesulfonylamino]-N-hydroxy-2-piperidin-1-ylpropionamide]	99%	469 nM	–
Cc1cc(COc2ccc(S(=O)(=O)NC[C@@H](C(=O)NO)N3CCOCC3)cc2)c2ccccc2n1 [Example 14, (S)—N-hydroxy-3-[4-(2-methylquinolin-4-ylmethoxy)benzenesulfonylamino]-2-morpholin-4-ylpropionamide]	91%	38 nM	IC50 (MMP3): 3030 nM; IC50 (TACE enzyme [2]; as listed in selectivity assay table): 24 nM
Cc1cc(COc2ccc(S(=O)(=O)NC[C@@H](C(=O)NO)N3CCCCC3)cc2)c2ccccc2n1.Cl.Cl [Example 15, (S)—N-hydroxy-3-[4-(2-methylquinolin-4-ylmethoxy)benzenesulfonylamino]-2-piperidin-1-ylpropionamide dihydrochloride]	98%	–	–
